Source: patent US12344600B2, “c-Myc mRNA translation modulators and uses thereof in the treatment of cancer” (Anima Biotech Inc., priority 2022, dated 2025)

Tested on: c-Myc
Assay: c-Myc immunofluorescence assay
Type: cell-based, human
Settings: A549 cells, 24 hours, anti-c-Myc immunofluorescence
Procedure: A549 human non-small cell lung carcinoma cells were treated for 24 hours with increasing compound concentration, cells were fixed and stained with a nuclei stain (DAPI) and anti-c-Myc fluorescent antibody. The c-Myc signal was quantified by image analysis, and data was exported and analyzed using TIBCO Spotfire® (TIBCO Corporation). Dose response curves were generated and fitted with logaristic regression to calculate potency (EC50 values). Potency values are presented in Table 2 for all compounds and are shown for selected compounds (FIG. 3).
A549 cells were grown in 384-wells plates (Perkin Elmer, Cat. 6057300) for 48 hours, treated with compounds and then fixed for 20 min in 4% paraformaldehyde. After that permeabilization was done using 0.1% Triton X-100 in PBS for 20 min. Primary anti-c-Myc antibody (Abcam, ab32072) staining was performed for 90 min at room temperature. Cells then were washed twice with PBS and incubated with secondary antibody (Abcam, ab150075) for 90 min at room temperature. Nuclei were stained with DAPI for 10 min and washed twice with PBS.
Cell images were taken with Operetta (Perkin Elmer, USA), a wide-field fluorescence microscope at 20× magnification. After acquisition, the images were transferred to Columbus software (Perkin-Elmer) for image analysis. In Columbus, cells were identified by their nucleus, using the “Find Nuceli” module and cytoplasm was detected based on the secondary antibody channel. Subsequently, the fluorescent signal was enumerated in the identified cell region. Then data was exported to a data analysis and visualization software, Tibco Spotfire, USA.

Row | SMILES | Myc Efficacy (−LogEC50)
1 | COc1ccc(-c2noc(C3CN(C(=O)N4CCC(C)CC4)C3)n2)cc1 [Compound 153, (3-(3-(4-methoxyphenyl)-1,2,4-oxadiazol-5-yl)azetidin-1-yl)(4-methylpiperidin-1-yl)methanone] | + (+ >3 and <5)
2 | Cc1ccc(CN2CCC(CNC(=O)C3CCN(c4nc(-c5ccc(Cl)cc5)no4)CC3)C2)cc1 (stereo not shown) [Compound 154, 1-(3-(4-chlorophenyl)-1,2,4-oxadiazol-5-yl)-N-((1-(4-methylbenzyl)pyrrolidin-3-yl)methyl)piperidine-4-carboxamide] | ++ (++ ≥5 and <6)
3 | Cc1ccc(CN2CCC(CNC(=O)C3CCN(c4nc(-c5cccc(Cl)c5)no4)CC3)C2)cc1 (stereo not shown) [Compound 155, 1-(3-(3-chlorophenyl)-1,2,4-oxadiazol-5-yl)-N-((1-(4-methylbenzyl)pyrrolidin-3-yl)methyl)piperidine-4-carboxamide] | ++ (++ ≥5 and <6)
4 | Cc1ccc(CN2CCC(CNC(=O)C3CCN(c4nc(-c5ccccc5Cl)no4)CC3)C2)cc1 (stereo not shown) [Compound 156, 1-(3-(2-chlorophenyl)-1,2,4-oxadiazol-5-yl)-N-((1-(4-methylbenzyl)pyrrolidin-3-yl)methyl)piperidine-4-carboxamide] | + (+ >3 and <5)
5 | COc1ccc(-c2cccc(N3CCC(C(=O)NCC4CCN(Cc5ccc(C)cc5)C4)CC3)n2)cc1 (stereo not shown) [Compound 157, 1-(6-(4-methoxyphenyl)pyridin-2-yl)-N-((1-(4-methylbenzyl)pyrrolidin-3-yl)methyl)piperidine-4-carboxamide] | ++ (++ ≥5 and <6)
6 | Cc1ccc(CN2CCC(CNC(=O)C3CCN(c4nc(-c5ccc(C#N)cc5)no4)CC3)C2)cc1 (stereo not shown) [Compound 158, 1-(3-(4-cyanophenyl)-1,2,4-oxadiazol-5-yl)-N-((1-(4-methylbenzyl)pyrrolidin-3-yl)methyl)piperidine-4-carboxamide] | ++ (++ ≥5 and <6)
7 | COc1ccc(-c2noc(N3CCC(C(=O)NCC4CCN(Cc5ccc(C)cc5)C4)CC3)n2)cn1 (stereo not shown) [Compound 159, 1-(3-(6-methoxypyridin-3-yl)-1,2,4-oxadiazol-5-yl)-N-((1-(4-methylbenzyl)pyrrolidin-3-yl)methyl)piperidine-4-carboxamide] | + (+ >3 and <5)
8 | COc1ccc(-c2csc(N3CCC(C(=O)NCC4CCN(Cc5ccc(C)cc5)C4)CC3)n2)cc1 (stereo not shown) [Compound 160, 1-(4-(4-methoxyphenyl)thiazol-2-yl)-N-((1-(4-methylbenzyl)pyrrolidin-3-yl)methyl)piperidine-4-carboxamide] | ++ (++ ≥5 and <6)
9 | COc1ccc(-c2noc(N3CCC(C(=O)NCc4ccncc4)CC3)n2)cc1 [Compound 161, 1-(3-(4-methoxyphenyl)-1,2,4-oxadiazol-5-yl)-N-(pyridin-4-ylmethyl)piperidine-4-carboxamide] | + (+ >3 and <5)
10 | COc1ccc(-c2noc(N3CCC(C(=O)NCc4cncnc4)CC3)n2)cc1 [Compound 162, 1-(3-(4-methoxyphenyl)-1,2,4-oxadiazol-5-yl)-N-(pyrimidin-5-ylmethyl)piperidine-4-carboxamide] | + (+ >3 and <5)
11 | O=C(NCc1cccnc1)C1CCN(c2nc(-c3ccc(Cl)cc3)no2)CC1 [Compound 163, 1-(3-(4-chlorophenyl)-1,2,4-oxadiazol-5-yl)-N-(pyridin-3-ylmethyl)piperidine-4-carboxamide] | + (+ >3 and <5)
12 | O=C(C1CCN(c2nc(-c3ccccc3Cl)no2)CC1)N1CCOCC1 [Compound 164, (1-(3-(2-chlorophenyl)-1,2,4-oxadiazol-5-yl)piperidin-4-yl)(morpholino)methanone] | − (− ≤3)
13 | O=C(C1CCN(c2nc(-c3cccc(Cl)c3)no2)CC1)N1CCOCC1 [Compound 165, (1-(3-(3-chlorophenyl)-1,2,4-oxadiazol-5-yl)piperidin-4-yl)(morpholino)methanone] | + (+ >3 and <5)
14 | O=C(C1CCN(c2nc(-c3ccc(Cl)cc3)no2)CC1)N1CCOCC1 [Compound 166, (1-(3-(4-chlorophenyl)-1,2,4-oxadiazol-5-yl)piperidin-4-yl)(morpholino)methanone] | + (+ >3 and <5)
15 | Cc1ccc(CN2CC[C@@H](CNC(=O)C3CCN(c4nc(-c5ccc(Cl)cc5)no4)CC3)C2)cc1 [Compound 167, (S)-1-(3-(4-chlorophenyl)-1,2,4-oxadiazol-5-yl)-N-((1-(4-methylbenzyl)pyrrolidin-3-yl)methyl)piperidine-4-carboxamide] | +++ (+++ ≥6)
16 | Cc1ccc(CN2CC[C@H](CNC(=O)C3CCN(c4nc(-c5ccc(Cl)cc5)no4)CC3)C2)cc1 [Compound 168, (R)-1-(3-(4-chlorophenyl)-1,2,4-oxadiazol-5-yl)-N-((1-(4-methylbenzyl)pyrrolidin-3-yl)methyl)piperidine-4-carboxamide] | ++ (++ ≥5 and <6)

Row | SMILES | Myc Efficacy (−LogEC50)
17 | COc1ccc(-c2n[nH]c(N3CCC(C(=O)NCC4CCN(Cc5ccc(C)cc5)C4)CC3)n2)cc1 (stereo not shown) [Compound 169, 1-(3-(4-methoxyphenyl)-1H-1,2,4-triazol-5-yl)-N-((1-(4-methylbenzyl)pyrrolidin-3-yl)methyl)piperidine-4-carboxamide] | + (+ >3 and <5)
18 | Cc1ccc(CN2CCC(CNC(=O)C3CCN(c4nc(-c5ccc(O)cc5)no4)CC3)C2)cc1 (stereo not shown) [Compound 170, 1-(3-(4-hydroxyphenyl)-1,2,4-oxadiazol-5-yl)-N-((1-(4-methylbenzyl)pyrrolidin-3-yl)methyl)piperidine-4-carboxamide] | + (+ >3 and <5)
19 | COc1ccc(-c2cccc(N3CCC(C(=O)NCC4CCN(Cc5ccc(C)cc5)C4)CC3)c2)cc1 (stereo not shown) [Compound 171, 1-(4′-methoxy-[1,1′-biphenyl]-3-yl)-N-((1-(4-methylbenzyl)pyrrolidin-3-yl)methyl)piperidine-4-carboxamide] | ++ (++ ≥5 and <6)
20 | COc1ccc(-c2noc(C3CCC(C(=O)NCC4CCN(Cc5ccccc5)C4)CC3)n2)cc1 (stereo not shown) [Compound 172, (1s,4s)-N-((1-benzylpyrrolidin-3-yl)methyl)-4-(3-(4-methoxyphenyl)-1,2,4-oxadiazol-5-yl)cyclohexane-1-carboxamide] | ++ (++ ≥5 and <6)
21 | COc1ccc(-c2noc([C@H]3CC[C@@H](C(=O)O)CC3)n2)cc1 [Compound 173, (1s,4s)-4-(3-(4-methoxyphenyl)-1,2,4-oxadiazol-5-yl)cyclohexane-1-carboxylic acid] | + (+ >3 and <5)
22 | COc1ccc(-c2noc(C3CCC(C(=O)NCC4CCN(Cc5ccccc5)C4)CC3)n2)cc1 (stereo not shown) [Compound 174, (1r,4r)-N-((1-benzylpyrrolidin-3-yl)methyl)-4-(3-(4-methoxyphenyl)-1,2,4-oxadiazol-5-yl)cyclohexane-1-carboxamide] | ++ (++ ≥5 and <6)
23 | COc1ccc(-c2noc([C@H]3CC[C@H](C(=O)O)CC3)n2)cc1 [Compound 175, (1r,4r)-4-(3-(4-methoxyphenyl)-1,2,4-oxadiazol-5-yl)cyclohexane-1-carboxylic acid] | + (+ >3 and <5)
24 | COc1ccc(-c2noc(C3CCC(C(=O)NCC4CC(=O)N(Cc5ccccc5)C4)CC3)n2)cc1 (stereo not shown) [Compound 176, (1s,4s)-N-((1-benzyl-5-oxopyrrolidin-3-yl)methyl)-4-(3-(4-methoxyphenyl)-1,2,4-oxadiazol-5-yl)cyclohexane-1-carboxamide] | + (+ >3 and <5)
25 | COc1ccc(-c2noc(C3CCC(C(=O)NCC4CC(=O)N(Cc5ccccc5)C4)CC3)n2)cc1 (stereo not shown) [Compound 177, (1r,4r)-N-((1-benzyl-5-oxopyrrolidin-3-yl)methyl)-4-(3-(4-methoxyphenyl)-1,2,4-oxadiazol-5-yl)cyclohexane-1-carboxamide] | ++ (++ ≥5 and <6)
26 | O=C(NCc1cccnc1)C1CCN(c2nc(-c3ccc(O)cc3)no2)CC1 [Compound 178, 1-(3-(4-hydroxyphenyl)-1,2,4-oxadiazol-5-yl)-N-(pyridin-3-ylmethyl)piperidine-4-carboxamide] | + (+ >3 and <5)
27 | COc1ccccc1-c1noc(N2CCC(C(=O)NCc3cccnc3)CC2)n1 [Compound 179, 1-(3-(2-methoxyphenyl)-1,2,4-oxadiazol-5-yl)-N-(pyridin-3-ylmethyl)piperidine-4-carboxamide] | + (+ >3 and <5)
28 | COc1cccc(-c2noc(N3CCC(C(=O)NCc4cccnc4)CC3)n2)c1 [Compound 180, 1-(3-(3-methoxyphenyl)-1,2,4-oxadiazol-5-yl)-N-(pyridin-3-ylmethyl)piperidine-4-carboxamide] | + (+ >3 and <5)
29 | COc1ccc(-c2cc(N3CCC(C(=O)NCc4cccnc4)CC3)on2)cc1 [Compound 181, 1-(3-(4-methoxyphenyl)isoxazol-5-yl)-N-(pyridin-3-ylmethyl)piperidine-4-carboxamide] | + (+ >3 and <5)
30 | O=C(C1CCN(c2nc(-c3ccc(O)cc3)no2)CC1)N1CCOCC1 [Compound 182, (1-(3-(4-hydroxyphenyl)-1,2,4-oxadiazol-5-yl)piperidin-4-yl)(morpholino)methanone] | + (+ >3 and <5)
31 | COc1ccc(-c2cc(N3CCC(C(=O)N4CCOCC4)CC3)on2)cc1 [Compound 183, (1-(3-(4-methoxyphenyl)isoxazol-5-yl)piperidin-4-yl)(morpholino)methanone] | + (+ >3 and <5)
